# What was measured:
# Type in all cases: biochemical
# Human PDE4C = Human PDE4C (Homo sapiens (Human), UniProt Q08493); test: PDE4C Scintillation Proximity Assay (SPA), inhibition of enzyme activity; conditions: human recombinant enzyme, 1 μM cAMP substrate, 30 min at 25° C., geometric mean of 2-9 determinations unless otherwise indicated, read-out: Human PDE4C FL
# Description: (§1) The PDE4A3, PDE4B1, PDE4C1 and PDE4D3 assays use the Scintillation Proximity Assay (SPA) technology to measure the inhibition of human recombinant PDE4A1, PDE4B3, PDE4C1, and PDE4D3 enzyme activity by compounds in vitro. The PDE4A1, PDE4B3, PDE4C1, and PDE4D3 assays are run in parallel using identical parameters, except for the concentration of enzyme (80 pM PDE4A3, 40 pM PDE4B3, 40 pM PDE4C1 and 10 pM PDE4D). […] Reactions are incubated for 30 min at 25° C. The addition of 20 uL of 8 mg/ml yitrium silicate SPA beads (Perkin Elmer) stops the reaction. The plates are sealed (TopSeal, Perkin Elmer) and the beads are allowed to settle for 8 hrs, after which they are read on the Trilux Microbeta overnight.
# Human PDE4D = Human PDE4D (Homo sapiens (Human), UniProt Q08499); test: PDE4D Scintillation Proximity Assay (SPA), inhibition of enzyme activity; conditions: human recombinant enzyme, 1 μM cAMP substrate, 30 min at 25° C., geometric mean of 2-9 determinations unless otherwise indicated, read-out: Human PDE4D FL
# Human PDE4A = Human PDE4A (Homo sapiens (Human), UniProt P27815); test: PDE4A Scintillation Proximity Assay (SPA), inhibition of enzyme activity; conditions: human recombinant enzyme, 1 μM cAMP substrate, 30 min at 25° C., geometric mean of 2-9 determinations unless otherwise indicated, read-out: Human PDE4A FL
# Chain of Human PDE4A (P27815 other isoform, or with tags, fused parts or gaps): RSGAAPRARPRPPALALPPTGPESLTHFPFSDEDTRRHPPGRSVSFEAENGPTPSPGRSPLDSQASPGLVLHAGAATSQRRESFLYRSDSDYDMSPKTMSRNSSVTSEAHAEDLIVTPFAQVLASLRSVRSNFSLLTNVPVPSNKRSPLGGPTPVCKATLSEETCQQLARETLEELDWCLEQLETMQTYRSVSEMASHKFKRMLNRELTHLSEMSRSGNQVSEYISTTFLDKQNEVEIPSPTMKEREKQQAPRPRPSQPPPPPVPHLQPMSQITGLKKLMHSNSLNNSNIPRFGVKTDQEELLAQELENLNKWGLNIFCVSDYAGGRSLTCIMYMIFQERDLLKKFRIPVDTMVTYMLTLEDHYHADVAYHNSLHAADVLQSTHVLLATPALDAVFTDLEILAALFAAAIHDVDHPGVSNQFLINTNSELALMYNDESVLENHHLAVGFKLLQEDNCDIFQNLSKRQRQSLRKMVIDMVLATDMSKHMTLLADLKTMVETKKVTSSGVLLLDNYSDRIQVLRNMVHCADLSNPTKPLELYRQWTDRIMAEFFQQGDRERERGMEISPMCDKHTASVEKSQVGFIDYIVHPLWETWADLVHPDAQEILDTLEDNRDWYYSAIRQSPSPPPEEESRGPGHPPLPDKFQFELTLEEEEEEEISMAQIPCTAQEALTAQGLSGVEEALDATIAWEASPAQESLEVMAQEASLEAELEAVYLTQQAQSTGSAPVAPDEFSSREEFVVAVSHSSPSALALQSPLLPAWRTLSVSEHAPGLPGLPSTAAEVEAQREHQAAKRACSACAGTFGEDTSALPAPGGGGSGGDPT
# Description: as §1
# Chain of Human PDE4C (Q08493 2-712): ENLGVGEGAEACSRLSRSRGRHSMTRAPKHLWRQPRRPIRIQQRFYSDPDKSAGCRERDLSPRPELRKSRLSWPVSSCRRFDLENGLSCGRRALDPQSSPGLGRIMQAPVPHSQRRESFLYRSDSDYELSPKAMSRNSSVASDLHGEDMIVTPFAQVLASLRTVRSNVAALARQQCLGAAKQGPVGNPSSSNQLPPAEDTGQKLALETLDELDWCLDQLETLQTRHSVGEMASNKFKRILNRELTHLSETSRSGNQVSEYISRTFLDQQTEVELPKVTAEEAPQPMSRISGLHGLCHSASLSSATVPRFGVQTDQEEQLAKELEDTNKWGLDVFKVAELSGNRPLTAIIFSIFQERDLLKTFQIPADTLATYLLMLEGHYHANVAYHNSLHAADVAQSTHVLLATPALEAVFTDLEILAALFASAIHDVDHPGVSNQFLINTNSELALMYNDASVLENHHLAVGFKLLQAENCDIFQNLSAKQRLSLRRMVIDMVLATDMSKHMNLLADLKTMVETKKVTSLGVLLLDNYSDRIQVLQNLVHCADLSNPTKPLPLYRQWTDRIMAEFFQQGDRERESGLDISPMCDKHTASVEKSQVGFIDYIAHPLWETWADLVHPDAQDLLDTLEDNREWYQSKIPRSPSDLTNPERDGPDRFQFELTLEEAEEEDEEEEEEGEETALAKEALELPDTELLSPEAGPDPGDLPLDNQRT
# Chain of Human PDE4D (Q08499 186-808): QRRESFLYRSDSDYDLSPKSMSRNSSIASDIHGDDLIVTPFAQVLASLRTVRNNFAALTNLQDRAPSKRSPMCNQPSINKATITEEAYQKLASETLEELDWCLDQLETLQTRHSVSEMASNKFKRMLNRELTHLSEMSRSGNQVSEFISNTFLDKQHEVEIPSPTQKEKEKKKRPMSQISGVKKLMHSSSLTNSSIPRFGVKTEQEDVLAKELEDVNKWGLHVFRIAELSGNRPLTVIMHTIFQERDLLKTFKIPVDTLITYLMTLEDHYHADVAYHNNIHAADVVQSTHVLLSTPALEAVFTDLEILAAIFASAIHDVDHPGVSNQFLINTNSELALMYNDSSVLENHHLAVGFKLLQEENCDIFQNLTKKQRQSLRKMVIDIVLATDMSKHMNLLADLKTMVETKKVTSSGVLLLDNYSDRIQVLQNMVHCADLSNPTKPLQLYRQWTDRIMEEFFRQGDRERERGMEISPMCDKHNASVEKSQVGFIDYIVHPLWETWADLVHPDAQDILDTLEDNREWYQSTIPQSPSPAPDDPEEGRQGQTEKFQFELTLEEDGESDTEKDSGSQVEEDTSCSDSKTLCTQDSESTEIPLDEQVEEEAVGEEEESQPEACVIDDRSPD
Structure (SMILES),IC50 (Human PDE4C) [nM],IC50 (Human PDE4D) [nM],IC50 (Human PDE4A) [nM]
"O=C(NC1CC1)c1nc2cccnn2c1-c1ccc2ocnc2c1 [Example 39, 3-(1,3-benzoxazol-5-yl)-N-cyclopropylimidazo[1,2-b]pyridazine-2-carboxamide]",67.8,3820,14.8
"O=C(NC1CC1)c1nc2cccnn2c1-c1ccc(Cl)cc1F [Example 40, 3-(4-chloro-2-fluorophenyl)-N-cyclopropylimidazo[1,2-b]pyridazine-2-carboxamide]",58.1,9020,19.6
"O=C(NC1CC1)c1nc2cccnn2c1-c1ccnc(C(F)(F)F)c1 [Example 42, N-cyclopropyl-3-[2-(trifluoromethyl)pyridin-4-yl]imidazo[1,2-b]pyridazine-2-carboxamide]",357,< 12200,415
"O=C(N[C@@H]1C[C@@H]1F)c1nc2cccnn2c1-c1ccc(Cl)cc1 [Example 46, 3-(4-chlorophenyl)-N-[(1R,2S)-2-fluorocyclopropyl]imidazo[1,2-b]pyridazine-2-carboxamide]",39.3,971,15.2
"O=C(c1nc2cccnn2c1-c1cc(F)c(Cl)c(F)c1)N1CCC1 [Example 47, azetidin-1-yl[3-(4-chloro-3,5-difluorophenyl)imidazo[1,2-b]pyridazin-2-yl]methanone]",23.9,334,7.37
"CCCNC(=O)c1nc2cccnn2c1-c1cncc(Cl)c1 [Example 48, 3-(5-chloropyridin-3-yl)-N-propylimidazo[1,2-b]pyridazine-2-carboxamide]",212,> 7670,768
"O=C(c1nc2cccnn2c1-c1ccc2c(c1)CCO2)N1CCC1 [Example 50, azetidin-1-yl[3-(2,3-dihydro-1-benzofuran-5-yl)imidazo[1,2-b]pyridazin-2-yl]methanone]",235,3140,28.1
"O=C(c1nc2cccnn2c1-c1ccc(Cl)cc1F)N1CCC1 [Example 52, azetidin-1-yl[3-(4-chloro-2-fluorophenyl)imidazo[1,2-b]pyridazin-2-yl]methanone]",113,5510,24.3
"Cc1cc(-c2c(C(=O)N3CCC3)nc3cccnn23)cc(C)c1F [Example 53, azetidin-1-yl[3-(4-fluoro-3,5-dimethylphenyl)imidazo[1,2-b]pyridazin-2-yl]methanone]",153,3110,17.8
"Cc1ccc(-c2c(C(=O)N3CCC3)nc3cccnn23)c(F)c1 [Example 54, azetidin-1-yl[3-(2-fluoro-4-methylphenyl)imidazo[1,2-b]pyridazin-2-yl]methanone]",136,> 20000,103
"COc1ccc(-c2c(C(=O)N3CCC3)nc3cccnn23)cc1F [Example 55, azetidin-1-yl[3-(3-fluoro-4-methoxyphenyl)imidazo[1,2-b]pyridazin-2-yl]methanone]",> 1550,> 20900,176
"O=C(c1nc2cccnn2c1-c1ccc(Cl)cc1)N1CC(F)C1 [Example 60, [3-(4-chlorophenyl)imidazo[1,2-b]pyridazin-2-yl](3-fluoroazetidin-1-yl)methanone]",287,> 4930,269
"O=C(c1nc2cccnn2c1-c1ccc(Cl)cc1)N1CC(F)(F)C1 [Example 61, [3-(4-chlorophenyl)imidazo[1,2-b]pyridazin-2-yl](3,3-difluoroazetidin-1-yl)methanone]",126,1930,144
"O=C(N[C@@H]1C[C@@H]1F)c1nc2cccnn2c1-c1ccc(Cl)cc1F [Example 68, 3-(4-chloro-2-fluorophenyl)-N-[(1R,2S)-2-fluorocyclopropyl]imidazo[1,2-b]pyridazine-2-carboxamide]",25.1,2620,10.6
"Cc1cc(Cl)ccc1-c1c(C(=O)N[C@@H]2C[C@@H]2F)nc2cccnn12 [Example 70, 3-(4-chloro-2-methylphenyl)-N-[(1R,2S)-2-fluorocyclopropyl]imidazo[1,2-b]pyridazine-2-carboxamide]",90,5760,36.4
"Cc1ccc(-c2c(C(=O)N[C@@H]3C[C@@H]3F)nc3cccnn23)cc1Cl [Example 71, 3-(3-chloro-4-methylphenyl)-N-[(1R,2S)-2-fluorocyclopropyl]imidazo[1,2-b]pyridazine-2-carboxamide]",2,113,< 0.669
"O=C(NC1CC1)c1nc2cccnn2c1-c1ccnc(OC(F)F)c1 [Example 75, N-cyclopropyl-3-[2-(difluoromethoxy)pyridin-4-yl]imidazo[1,2-b]pyridazine-2-carboxamide]",24.9,104,10.5

Structure (SMILES),IC50 (Human PDE4C) [nM],IC50 (Human PDE4D) [nM],IC50 (Human PDE4A) [nM]
"O=C(c1nc2cccnn2c1-c1ccnc(OC(F)F)c1)N1CCC1 [Example 76, azetidin-1-yl{3-[2-(difluoromethoxy)pyridin-4-yl]imidazo[1,2-b]pyridazin-2-yl}methanone]",22.2,94.5,7.09
"O=C(c1nc2cccnn2c1-c1ccc2ncoc2c1)N1CCC1 [Example 77, azetidin-1-yl[3-(1,3-benzoxazol-6-yl)imidazo[1,2-b]pyridazin-2-yl]methanone]",186,> 16600,46.1
"N#Cc1ccc(-c2c(C(=O)NC3CC3)nc3cccnn23)c(F)c1 [Example 79, 3-(4-cyano-2-fluorophenyl)-N-cyclopropylimidazo[1,2-b]pyridazine-2-carboxamide]",297,> 25400,48.8
"O=C(c1nc2cccnn2c1-c1ccc(Cl)c(Cl)c1)N1CCC1 [Example 83, azetidin-1-yl[3-(3,4-dichlorophenyl)imidazo[1,2-b]pyridazin-2-yl]methanone]",40,495,6.21
"CCNC(=O)c1nc2cccnn2c1-c1ccc(Cl)cc1 [Example 85, 3-(4-chlorophenyl)-N-ethylimidazo[1,2-b]pyridazine-2-carboxamide]",47.2,6700,25.6
"O=C(NC1CC1)c1nc2cccnn2c1-c1ccc(OC(F)F)nc1 [Example 87, N-cyclopropyl-3-[6-(difluoromethoxy)pyridin-3-yl]imidazo[1,2-b]pyridazine-2-carboxamide]",397,6790,240
"O=C(NC1CC1)c1nc2cccnn2c1-c1ccc2ncoc2c1 [Example 88, 3-(1,3-benzoxazol-6-yl)-N-cyclopropylimidazo[1,2-b]pyridazine-2-carboxamide]",136,10400,45
"Cc1cc2ncnn2cc1-c1c(C(=O)NC2CC2)nc2cccnn12 [Example 89, N-cyclopropyl-3-(7-methyl[1,2,4]triazolo[1,5-a]pyridin-6-yl)imidazo[1,2-b]pyridazine-2-carboxamide]",3760,> 17200,829
"N#Cc1ccc(-c2c(C(=O)NC3CC3)nc3cccnn23)cc1F [Example 90, 3-(4-cyano-3-fluorophenyl)-N-cyclopropylimidazo[1,2-b]pyridazine-2-carboxamide]",25.5,2620,21.4
"N#Cc1cc(F)c(-c2c(C(=O)NC3CC3)nc3cccnn23)cc1F [Example 92, 3-(4-cyano-2,5-difluorophenyl)-N-cyclopropylimidazo[1,2-b]pyridazine-2-carboxamide]",42.5,> 1440,5.52
"CNC(=O)c1nc2cccnn2c1-c1cc(F)c(Cl)cc1F [Example 93, 3-(4-chloro-2,5-difluorophenyl)-N-methylimidazo[1,2-b]pyridazine-2-carboxamide]",134,4110,62.9
"CNC(=O)c1nc2cccnn2c1-c1ccc(Cl)c(F)c1 [Example 94, 3-(4-chloro-3-fluorophenyl)-N-methylimidazo[1,2-b]pyridazine-2-carboxamide]",65,5380,24.9
"CCNC(=O)c1nc2cccnn2c1-c1cc(F)c(Cl)cc1F [Example 96, 3-(4-chloro-2,5-difluorophenyl)-N-ethylimidazo[1,2-b]pyridazine-2-carboxamide]",29.2,908,4.58
"CCNC(=O)c1nc2cccnn2c1-c1cc(F)c(C#N)cc1C [Example 98, 3-(4-cyano-5-fluoro-2-methylphenyl)-N-ethylimidazo[1,2-b]pyridazine-2-carboxamide]",107,3320,26.6
"O=C(Nc1ncccn1)c1nc2cccnn2c1-c1ccc(Cl)cc1 [Example 101, 3-(4-chlorophenyl)-N-(pyrimidin-2-yl)imidazo[1,2-b]pyridazine-2-carboxamide]",1180,> 25900,268
"O=C(NCC1CC1)c1nc2cccnn2c1-c1ccc(Cl)cc1 [Example 102, 3-(4-chlorophenyl)-N-(cyclopropylmethyl)imidazo[1,2-b]pyridazine-2-carboxamide]",76,5010,59.9
"O=C(NC1CC1)c1nc2cccnn2c1-c1cc(F)c(Cl)c(F)c1 [Example 104, 3-(4-chloro-3,5-difluorophenyl)-N-cyclopropylimidazo[1,2-b]pyridazine-2-carboxamide]",4.69,145,< 0.488
